# Measurements: patent publication US6156724A, “Uses of didemnins as immunomodulating agents” (priority 1998, dated 2000)
# Where two headings read alike, the source gives them in different places. Numbered stars: 1 amine (or outer) side, 2 acyl side, 3 side chain; on linkers, the order of the positions; unused ones are H or OH. Bridge positions count the residues as written; N and C are the ends. Square brackets hold non-standard residues; d marks the D form. Peptide text beside a SMILES is read from it. * marks the point of attachment. X4 = CC[C@H](C)[C@@H](N[*:1])[C@@H](O)CC(=O)O[C@@H](C(C)C)[C@H](O)[C@H](C)C(=O)[*:2]; X5 = CC[C@@H](C)[C@@H](N[*:1])[C@@H](O)CC(=O)O[C@H](C(=O)[C@H](C)C(=O)[*:2])C(C)C; X1 = CC[C@H](C)[C@@H](N[*:1])[C@@H](O)CC(=O)O[C@H](C(=O)[C@H](C)C(=O)[*:2])C(C)C; X3 = CC[C@H](C)[C@H](N[*:1])[C@@H](O)CC(=O)O[C@H](C(=O)[C@H](C)C(=O)[*:2])C(C)C; X7 = CCC(C)C(N[*:1])C(O)CC(=O)OC(C(=O)C(C)C(=O)[*:2])C(C)C; NMeY = CN[CH](Cc1ccc(O)cc1)C(=O)O; Stearoyl = CCCCCCCCCCCCCCCCCC(=O)*; dNMeL = CN[C@H](CC(C)C)C(=O)O; pGlu = O=C1CC[C@@H](C(=O)O)N1; NMeL = CN[CH](CC(C)C)C(=O)O; Pyruvoyl = CC(=O)C(=O)*; Cbz = O=C(OCc1ccccc1)*; Lac = C[C@H](O)C(=O)O; Propionyl = CCC(=O)*; Butyryl = CCCC(=O)*
# Columns and labels:
# [1] = test system: Balb/c splenocytes (resting lymphocytes); experiment: Lymphocyte viability (LcV) assay; type: cell-based, murine; settings: unstimulated Balb/c splenocytes, MTT
# Protocol: Forty two (42) didemnin compounds (see Table 1) were evaluated for cytotoxicity to one of the lymphocyte populations in the MLR (i.e., Balb/c splenocytes). The purpose of the lymphocyte viability assay (LcV) is to measure metabolic activity in lymphocytes after they have been exposed to the compounds for the duration of an under conditions equivalent to the MLR. The inverse of the data yields cytotoxicity information about the compounds on murine lymphocytes. The rationale of using resting cells, in this case unstimulated lymphocytes, to measure cytotoxicity has a strategic importance. In the MLR the heterogenous cell populations are predominantly resting cells when the assay begins.
# Test compounds were prepared in two sets as described above. Splenocytes were prepared as described previously from one murine strain (Balb/c), and a volume of 200 μL of the cell suspension was added to one set of test compounds and control wells.
# Assay plates were incubated as in the MLR and then pulsed overnight 75 μL per well MTT-thiazolyl blue solution (150 μg). The plates were decanted and the resulting insoluble formazan crystals were dissolved in 200 μL of isopropyl alcohol. Absorbance at 570 nm was measured.
# The LcV data were calculated as a percentage of basal metabolic activity, or percent viability, relative to BALB/c control, and an LC50 value was interpolated for each test compound.
# [2] = test system: murine splenocytes (Balb/c and C57B1/6); experiment: Two-way mixed lymphocyte reaction (MLR) assay;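 further: proliferation read as tritiated thymidine incorporation into newly made DNA after an overnight pulse, expressed as percent of control activity, IC50 interpolated per compound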
# [3] = test system: concanavalin A-induced lymphoblasts (Con A splenocytes); experiment: Lymphoblast viability (LbV) assay; settings: Con A-stimulated splenocytes (lymphoblasts), MTT
# [4] = Balb/c + C57B1/6 splenocytes, 96 h, [3H]thymidine
# [5] = read-out: two-way mixed lymphocyte reaction (MLR) suppression MLR, IC50, Balb/c + C57B1/6 splenocytes, 96 h, [3H]thymidine
Molecule,"cytoxicity to lymphocytes LcV, LC50 [1]","cytoxicity to lymphocytes LcV, LC50 ([1]; highest concentration 10 μg/mL)","two-way mixed lymphocyte reaction (MLR) suppression MLR, IC50 [2, 4]","IC50 [2, 5]","cytotoxicity to lymphocytes LbV, LC50 [3]",IC50 ([2]; read-out: MLR IC50)
"CCCCCCCCCCCCCCCCCC(=O)N(C)[C@H](CC(C)C)C(=O)N[C@@H]1C(=O)N[C@H]([C@@H](C)CC)[C@@H](O)CC(=O)O[C@@H](C(C)C)C(=O)[C@H](C)C(=O)N[C@@H](CC(C)C)C(=O)N2CCC[C@H]2C(=O)N(C)[C@@H](Cc2ccc(OC)cc2)C(=O)O[C@@H]1C [Compound 25, N^α -Octadecanoyldidemnin A] (Stearoyl-[dNMeL]T[X1]LP[NMeY](Me); ester 2-C)",> 8500 nM,> 10 µg/mL,6040 ng/mL,5110 nM,2700 nM,–
"CC[C@H](C)[C@H]1NC(=O)[C@@H](NC(=O)[C@@H](CC(C)C)N(C)C(=O)[C@@H]2CCCN2C(=O)[C@H](C)OC(=O)[C@H](CCC(N)=O)NC(=O)[C@H](CCC(N)=O)NC(=O)[C@@H]2CCC(=O)N2)[C@@H](C)OC(=O)[C@H](Cc2ccc(OC)cc2)N(C)C(=O)[C@@H]2CCCN2C(=O)[C@H](CC(C)C)NC(=O)[C@@H](C)C(=O)[C@H](C(C)C)OC(=O)C[C@@H]1O [Compound 39, Didemnin E] ([pGlu]QQ[Lac]P[dNMeL]T[X1]LP[NMeY](Me); ester 7-C)",> 6770 nM,> 10 µg/mL,0.012 ng/mL,0.0084 nM,1.4 nM,0.0084 nM
"CC[C@H](C)[C@H]1NC(=O)[C@@H](NC(=O)[C@@H](CC(C)C)NC)[C@@H](C)OC(=O)[C@H](Cc2ccc(OC)cc2)N(C)C(=O)[C@@H]2CCCN2C(=O)[C@H](CC(C)C)NC(=O)[C@@H](C)[C@@H](O)[C@H](C(C)C)OC(=O)C[C@@H]1O [Compound 10, [(2S,3R,4S)-H2 Hip^3]Didemnin A] (H-[dNMeL]T[X4]LP[NMeY](Me); ester 2-C)",> 10600 nM,> 10 µg/mL,29.0 ng/mL,30.5 nM,460 nM,–
"CCC(=O)N(C)[C@H](CC(C)C)C(=O)N[C@@H]1C(=O)N[C@H]([C@@H](C)CC)[C@@H](O)CC(=O)O[C@@H](C(C)C)C(=O)[C@H](C)C(=O)N[C@@H](CC(C)C)C(=O)N2CCC[C@H]2C(=O)N(C)[C@@H](Cc2ccc(OC)cc2)C(=O)O[C@@H]1C [Compound 19, N^α -Propionyldidemnin A] (Propionyl-[dNMeL]T[X1]LP[NMeY](Me); ester 2-C)",6500 nM,6.50 µg/mL,0.37 ng/mL,0.37 nM,0.068 nM,–
"CCC(=O)N1CCC[C@H]1C(=O)N(C)[C@H](CC(C)C)C(=O)N[C@@H]1C(=O)N[C@H]([C@@H](C)CC)[C@@H](O)CC(=O)O[C@@H](C(C)C)C(=O)[C@H](C)C(=O)N[C@@H](CC(C)C)C(=O)N2CCC[C@H]2C(=O)N(C)[C@@H](Cc2ccc(OC)cc2)C(=O)O[C@@H]1C [Compound 32, [Propionyl^9]Didemnin B] (Propionyl-P[dNMeL]T[X1]LP[NMeY](Me); ester 3-C)",1980 nM,2.20 µg/mL,0.26 ng/mL,0.23 nM,0.184 nM,–
"CC[C@@H](C)[C@H]1NC(=O)[C@@H](NC(=O)[C@@H](CC(C)C)N(C)C(=O)OCc2ccccc2)[C@@H](C)OC(=O)[C@H](Cc2ccc(OC)cc2)N(C)C(=O)[C@@H]2CCCN2C(=O)[C@H](CC(C)C)NC(=O)[C@@H](C)C(=O)[C@H](C(C)C)OC(=O)C[C@@H]1O [Compound 5, Z-[(3S,4R,5R)-Ist^2]Didemnin A] (Cbz-[dNMeL]T[X5]LP[NMeY](Me); ester 2-C)",> 9300 nM,> 10 µg/mL,0.30 ng/mL,0.28 nM,12 nM,–
"CC[C@H](C)[C@H]1NC(=O)[C@@H](NC(=O)[C@@H](CC(C)C)NC)[C@@H](C)OC(=O)[C@H](Cc2ccc(OC)cc2)N(C)C(=O)[C@@H]2CCCN2C(=O)[C@H](CC(C)C)NC(=O)[C@@H](C)C(=O)[C@H](C(C)C)OC(=O)C[C@@H]1OC(C)=O [Compound 7, O-Acetyldidemnin A]",> 10000 nM,> 10 µg/mL,100 ng/mL,100 nM,77 nM,–
"CC[C@H](C)[C@@H]1NC(=O)[C@@H](NC(=O)[C@@H](CC(C)C)N(C)C(=O)OCc2ccccc2)[C@@H](C)OC(=O)[C@H](Cc2ccc(OC)cc2)N(C)C(=O)[C@@H]2CCCN2C(=O)[C@H](CC(C)C)NC(=O)[C@@H](C)C(=O)[C@H](C(C)C)OC(=O)C[C@@H]1O [Compound 6, Z-[(3S,4S,5S)-Ist^2]Didemnin A] (Cbz-[dNMeL]T[X3]LP[NMeY](Me); ester 2-C)",> 9300 nM,> 10 µg/mL,290 ng/mL,270 nM,2600 nM,–
"CC[C@H](C)[C@H]1NC(=O)[C@@H](NC(=O)[C@@H](CC(C)C)N(C)C(=O)[C@@H]2CCCN2C(=O)[C@H](C)O)[C@@H](C)OC(=O)[C@H](Cc2ccc(O)cc2)NC(=O)[C@@H]2CCCN2C(=O)[C@H](CC(C)C)NC(=O)[C@@H](C)C(=O)[C@H](C(C)C)OC(=O)C[C@@H]1O [Compound 13, Didemnin N]",> 9200 nM,> 10 µg/mL,37.0 ng/mL,34.2 nM,210 nM,–
"CC[C@H](C)[C@H]1NC(=O)[C@@H](NC(=O)[C@@H](CC(C)C)N(C)C(=O)[C@@H]2CCCN2C(=O)[C@H](C)O)[C@@H](C)OC(=O)[C@H](Cc2ccc(OC)cc2)N(C)C(=O)[C@@H]2CCCN2C(=O)[C@H](CC(C)C)NC(=O)[C@@H](C)C(=NO)[C@H](C(C)C)OC(=O)C[C@@H]1O [Compound 11, [Hip^3 oxime]Didemnin B]",> 8900 nM,> 10 µg/mL,0.96 ng/mL,0.85 nM,1.7 nM,–
"CC[C@H](C)[C@H]1NC(=O)[C@@H](NC(=O)[C@@H](CC(C)C)N(C)C(=O)[C@@H]2CCCN2C(=O)C(C)=O)[C@@H](C)OC(=O)[C@H](Cc2ccc(OC)cc2)N(C)C(=O)[C@@H]2CCCN2C(=O)[C@H](CC(C)C)NC(=O)[C@@H](C)C(=O)[C@H](C(C)C)OC(=O)C[C@@H]1O [Compound 30, dehydrodidemnin B] (Pyruvoyl-P[dNMeL]T[X1]LP[NMeY](Me); ester 3-C)",2600 nM,2.90 µg/mL,0.43 ng/mL,0.38 nM,0.079 nM,–
"CC[C@H](C)[C@H]1NC(=O)[C@@H](NC(=O)[C@@H](CC(C)C)N(C)C(=O)[C@H]2CCCN2)[C@@H](C)OC(=O)[C@H](Cc2ccc(OC)cc2)N(C)C(=O)[C@@H]2CCCN2C(=O)[C@H](CC(C)C)NC(=O)[C@@H](C)C(=O)[C@H](C(C)C)OC(=O)C[C@@H]1O [Compound 29, N^α -(D-Pro)-Didemnin A] (H-[dP][dNMeL]T[X1]LP[NMeY](Me); ester 3-C)",> 9600 nM,> 10 µg/mL,12.2 ng/mL,11.7 nM,22 nM,–
"CCCC(=O)N(C)C(CC(C)C)C(=O)NC1C(=O)NC(C(C)CC)C(O)CC(=O)OC(C(C)C)C(=O)C(C)C(=O)NC(CC(C)C)C(=O)N2CCCC2C(=O)N(C)C(Cc2ccc(OC)cc2)C(=O)OC1C (stereo not drawn) [Compound 20, N^α -n-Butyryldidemnin A] (Butyryl-[NMeL]T[X7]LP[NMeY](Me); ester 2-C; configuration not given here)",99 nM,–,0.30 ng/mL,0.3 nM,0.074 nM,–
Didemnin Y [Compound 42],> 5570 nM,> 10 µg/mL,0.89 ng/mL,0.5 nM,1.1 nM,–
"CC[C@H](C)[C@H]1NC(=O)[C@@H](NC(=O)[C@@H](CC(C)C)N(C)C(=O)[C@H](C)NC(=O)[C@H](C)O)[C@@H](C)OC(=O)[C@H](Cc2ccc(OC)cc2)N(C)C(=O)[C@@H]2CCCN2C(=O)[C@H](CC(C)C)NC(=O)[C@@H](C)C(=O)[C@H](C(C)C)OC(=O)C[C@@H]1O [Compound 35, [L-Ala^8]Didemnin B]",> 9200 nM,> 10 µg/mL,0.33 ng/mL,0.31 nM,0.717 nM,–
